Experimental data taken from patent publication US10807952B2 (Achillion Pharmaceuticals, Inc., priority 2015, dated 2020).
pIC50: −log10 of the molar value.

Each molecule was assayed against Human Factor D (Homo sapiens (Human), UniProt P00746) (assay: Human Factor D assay (Z-L-Lys-SBzl / DTNB, absorbance at 405 nm)). Conditions: Table 3; Human Factor D 80 nM, assay of Example 13.
Sequence of Human Factor D (P00746 26-253): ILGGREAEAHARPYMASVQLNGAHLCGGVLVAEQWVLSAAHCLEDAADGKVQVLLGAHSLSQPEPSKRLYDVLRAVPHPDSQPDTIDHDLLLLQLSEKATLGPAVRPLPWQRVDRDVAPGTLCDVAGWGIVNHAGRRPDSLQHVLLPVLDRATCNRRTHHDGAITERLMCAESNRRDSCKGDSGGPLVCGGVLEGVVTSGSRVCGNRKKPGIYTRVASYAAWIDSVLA
Format: biochemical
Protocol: Human Factor D (purified from human serum, Complement Technology, Inc.) at 80 nM final concentration was incubated with test compound at various concentrations for 5 minutes at room temperature in 50 mM Tris, 1M NaCl, pH 7.5. A synthetic substrate Z-L-Lys-SBzl and DTNB (Ellman's reagent) were added to final concentrations of 100 μM each. […] IC50 values were calculated by nonlinear regression of complement Factor D reaction rates as a function of test compound concentration.
Work on `CC(=O)c1cn(CC(=O)O)c2cc(-c3cccc(NC(=O)[C@@H]4C[C@@H](F)CN4C(=O)Cn4nc(C(N)=O)c5ccccc54)c3F)ccc12` [Compound 31, 2-(3-acetyl-6-(3-((2S,4R)-1-(2-(3-carbamoyl-1H-indazol-1-yl)acetyl)-4-fluoropyrrolidine-2-carboxamido)-2-fluorophenyl)-1H-indol-1-yl)acetic acid] yielded a pIC50 of 5.00 to 6.00.
For `NC(=O)c1nn(CC(=O)N2C[C@H](F)C[C@H]2C(=O)Nc2cccc(-c3ccc4[nH]ncc4c3Cl)c2F)c2ccccc12` [Compound 17, 1-(2-((2S,4R)-2-(3-(4-chloro-1H-indazol-5-yl)-2-fluorophenyl-carbamoyl)-4-fluoropyrrolidin-1-yl)-2-oxoethyl)-1H-indazole-3-carboxamide], the pIC50 was > 6.00.
In the case of `CC(=O)c1cn(CC(=O)OC(C)(C)C)c2cc(-c3cccc(NC(=O)[C@@H]4C[C@@H](F)CN4C(=O)Cn4nc(C(N)=O)c5ccccc54)c3F)ccc12` [Compound 30, tert-butyl 2-(3-acetyl-6-(3-((2S,4R)-1-(2-(3-carbamoyl-1H-indazol-1-yl)acetyl)-4-fluoropyrrolidine-2-carboxamido)-2-fluorophenyl)-1H-indol-1-yl)acetate], the pIC50 was 5.00 to 6.00.
In the case of `NC(=O)c1nn(CC(=O)N2C[C@H](F)C[C@H]2C(=O)Nc2cccc(-c3ccc4[nH]cnc4c3)c2F)c2ccccc12` [Compound 6, 1-(2-((2S,4R)-2-(3-(1H-benzo[d]imidazol-5-yl)-2-fluorophenyl-carbamoyl)-4-fluoropyrrolidin-1-yl)-2-oxoethyl)-1H-indazole-3-carboxamide], the pIC50 was > 6.00.
`CC(=O)c1cn(CC(=O)N[C@H](C(=O)Nc2cccc(Br)n2)[C@@H](C)O)c2ccccc12` [Compound 16, (2S,3R)-2-(2-(3-acetyl-1H-indol-1-yl)acetamido)-N-(6-bromopyridin-2-yl)-3-hydroxybutanamide] was tested, and the pIC50 was 5.00 to 6.00.
In the case of `NC(=O)c1nn(CC(=O)N2C[C@H](F)C[C@H]2C(=O)Nc2cccc(-c3ccccc3Cl)c2F)c2cn[nH]c12` [Compound 66, 1-(2-((2S,4R)-2-(2′-chloro-2-fluorobiphenyl-3-ylcarbamoyl)-4-fluoropyrrolidin-1-yl)-2-oxoethyl)-1,4-dihydropyrazolo[4,3-c]pyrazole-3-carboxamide], the pIC50 was > 6.00.
With `NC(=O)c1nn(CC(=O)N2C[C@H](F)C[C@H]2C(=O)Nc2cccc(-c3ccc4[nH]c(C(F)(F)F)nc4c3Cl)c2F)c2ccccc12` [Compound 9, 1-(2-((2S,4R)-2-(3-(4-chloro-2-(trifluoromethyl)-1H-benzo[d]imidazol-5-yl)-2-fluorophenyl-carbamoyl)-4-fluoropyrrolidin-1-yl)-2-oxoethyl)-1H-indazole-3-carboxamide] the pIC50 was > 6.00.
With `Cc1nc2cc(-c3cccc(NC(=O)[C@@H]4C[C@@H](F)CN4C(=O)Cn4nc(C(N)=O)c5ccccc54)c3F)ccc2[nH]1` [Compound 10] the pIC50 was > 6.00.
With `NC(=O)c1cn(CC(=O)N2C[C@H](F)C[C@H]2C(=O)Nc2cccc(Br)n2)n2ccnc12` [Compound 55, 5-(2-((2S,4R)-2-(6-bromopyridin-2-ylcarbamoyl)-4-fluoropyrrolidin-1-yl)-2-oxoethyl)-5H-imidazo[1,2-b]pyrazole-7-carboxamide] the pIC50 was < 5.00.
For `CC(=O)c1cn(CC(=O)N2C[C@H](F)C[C@H]2C(=O)Nc2cccc(Br)n2)c2ccc(S(C)(=O)=NC(=O)OC(C)(C)C)cc12` (stereo partly drawn) [Compound 69, tert-butyl ((3-acetyl-1-(2-((2S,4R)-2-((6-bromopyridin-2-yl)carbamoyl)-4-fluoropyrrolidin-1-yl)-2-oxoethyl)-1H-indol-5-yl)(methyl)(oxo)-[…]^6-sulfanylidene)-[…]^4-azanecarboxylate e( )], the pIC50 was > 6.00.
In the case of `O=C(Nc1cccc(-c2ccccc2Cl)c1F)[C@@H]1C[C@@H](F)CN1C(=O)Cc1cccc(Cl)c1` [Compound 42], the pIC50 was > 6.00.
`NC(=O)c1nn(CC(=O)N2C[C@H](F)C[C@H]2C(=O)Nc2cccc(-c3ccc4ocnc4c3)c2F)c2ccccc12` [Compound 57, 1-(2-((2S,4R)-2-(3-(benzo[d]oxazol-5-yl)-2-fluorophenyl-carbamoyl)-4-fluoropyrrolidin-1-yl)-2-oxoethyl)-1H-indazole-3-carboxamide] was tested, and the pIC50 was > 6.00.
In the case of `NC(=O)c1nn(CC(=O)N2C[C@H](F)C[C@H]2C(=O)Nc2cccc(Br)n2)c2cc(S(F)(F)(F)(F)F)ccc12` [Compound 40, 1-(2-((2S,4R)-2-((6-Bromopyridin-2-yl)carbamoyl)-4-fluoropyrrolidin-1-yl)-2-oxoethyl)-6-(pentafluoro-λ^6-sulfanyl)-1H-indazole-3-carboxamide], the pIC50 was > 6.00.
`N#Cc1n[nH]c2cc(-c3cccc(NC(=O)[C@@H]4C[C@@H](F)CN4C(=O)Cn4nc(C(N)=O)c5ccccc54)c3F)ccc12` [Compound 32, 1-(2-((2S,4R)-2-(3-(3-cyano-1H-indazol-6-yl)-2-fluorophenyl-carbamoyl)-4-fluoropyrrolidin-1-yl)-2-oxoethyl)-1H-indazole-3-carboxamide] was tested, and the pIC50 was > 6.00.
`NC(=O)c1cc(CC(=O)N2C[C@H](F)C[C@H]2C(=O)Nc2cccc(-c3ccccc3Cl)c2F)ccc1Cl` [Compound 22, (2S,4R)-1-(2-(3-carbamoyl-4-chlorophenyl)acetyl)-N-(2′-chloro-2-fluorobiphenyl-3-yl)-4-fluoropyrrolidine-2-carboxamide] gave a pIC50 of 5.00 to 6.00.
With `NC(=O)c1nn(CC(=O)N2C[C@H](F)C[C@H]2C(=O)Nc2cccc(-c3ccc4nc(F)[nH]c4c3Cl)c2F)c2ccccc12` [Compound 44, 1-(2-((2S,4R)-2-(3-(7-chloro-2-fluoro-1H-benzo[d]imidazol-6-yl)-2-fluorophenyl-carbamoyl)-4-fluoropyrrolidin-1-yl)-2-oxoethyl)-1H-indazole-3-carboxamide] the pIC50 was > 6.00.
`N#Cc1n[nH]c2ccc(-c3cccc(NC(=O)[C@@H]4C[C@@H](F)CN4C(=O)Cn4nc(C(N)=O)c5ccccc54)c3F)cc12` [Compound 13, 1-(2-((2S,4R)-2-(3-(3-cyano-1H-indazol-5-yl)-2-fluorophenyl-carbamoyl)-4-fluoropyrrolidin-1-yl)-2-oxoethyl)-1H-indazole-3-carboxamide] was tested, and the pIC50 was > 6.00.
`NC(=O)c1cn(CC(=O)N2CCC[C@H]2C(=O)Nc2cccc(-c3ccccc3Cl)c2F)n2ccnc12` [Compound 54] was tested, and the pIC50 was < 5.00.

Same assay, conditions: Table 4; Human Factor D 80 nM, assay of Example 13
`CC(=O)c1nn(CC(=O)N2C[C@H](F)C[C@H]2C(=O)Nc2cccc(-c3cc(C(=O)O)c4nc[nH]c4c3)c2F)c2ccccc12` [Compound 80, 6-(3-((2S,4R)-1-(2-(3-acetyl-1H-indazol-1-yl)acetyl)-4-fluoropyrrolidine-2-carboxamido)-2-fluorophenyl)-1H-benzo[d]imidazole-4-carboxylic acid] was tested, and the pIC50 was > 6.00.
For `NC(=O)c1nn(CC(=O)N2C[C@H](F)C[C@H]2C(=O)Nc2cccc(-c3ccc4oc(=O)[nH]c4c3)c2F)c2ccccc12` [Compound 92, 1-(2-((2S,4R)-4-fluoro-2-((2-fluoro-3-(2-oxo-2,3-dihydrobenzo[d]oxazol-5-yl)phenyl)carbamoyl)pyrrolidin-1-yl)-2-oxoethyl)-1H-indazole-3-carboxamide], the pIC50 was > 6.00.
`CC(=O)c1nn(CC(=O)N2C[C@H](F)C[C@H]2C(=O)Nc2cccc(/C=C/c3nc4c(Cl)cccc4[nH]3)c2F)c2ccccc12` [Compound 104, (2S,4R)-1-(2-(3-acetyl-1H-indazol-1-yl)acetyl)-N-(3-((E)-2-(4-chloro-1H-benzo[d]imidazol-2-yl)vinyl)-2-fluorophenyl)-4-fluoropyrrolidine-2-carboxamide] was tested, and the pIC50 was > 6.00.
For `COC(=O)c1cc(-c2cccc(NC(=O)[C@@H]3C[C@@H](F)CN3C(=O)Cn3nc(C(N)=O)c4ccccc43)c2F)cc2[nH]c(N)nc12` [Compound 76, methyl 2-amino-6-(3-((2S,4R)-1-(2-(3-carbamoyl-1H-indazol-1-yl)acetyl)-4-fluoropyrrolidine-2-carboxamido)-2-fluorophenyl)-1H-benzo[d]imidazole-4-carboxylate], the pIC50 was > 6.00.
With `NC(=O)c1nn(CC(=O)N2C[C@H](F)C[C@H]2C(=O)Nc2cccc(-c3ccc4c(c3)NC(=O)C4)c2F)c2ccccc12` [Compound 88, 1-(2-((2S,4R)-4-fluoro-2-((2-fluoro-3-(2-oxoindolin-6-yl)phenyl)carbamoyl)pyrrolidin-1-yl)-2-oxoethyl)-1H-indazole-3-carboxamide] the pIC50 was > 6.00.
In the case of `NC(=O)c1nn(CC(=O)N2C[C@H](F)C[C@H]2C(=O)Nc2cccc(-c3cc(Cl)c4[nH]ccc4c3)c2F)c2ccccc12` [Compound 90, 1-(2-((2S,4R)-2-((3-(7-chloro-1H-indol-5-yl)-2-fluorophenyl)carbamoyl)-4-fluoropyrrolidin-1-yl)-2-oxoethyl)-1H-indazole-3-carboxamide], the pIC50 was > 6.00.
With `NC(=O)c1nn(CC(=O)N2C[C@H](F)C[C@H]2C(=O)Nc2cccc(-c3ccc4c(c3)C(=O)NC4)c2F)c2ccccc12` [Compound 91, 1-(2-((2S,4R)-4-fluoro-2-((2-fluoro-3-(3-oxoisoindolin-5-yl)phenyl)carbamoyl)pyrrolidin-1-yl)-2-oxoethyl)-1H-indazole-3-carboxamide] the pIC50 was > 6.00.
`CC(=O)c1nn(CC(=O)N2C[C@H](F)C[C@H]2C(=O)Nc2cccc(-c3ccc4[nH]ccc4c3)c2F)c2ccccc12` [Compound 85, (2S,4R)-1-(2-(3-acetyl-1H-indazol-1-yl)acetyl)-4-fluoro-N-(2-fluoro-3-(1H-indol-5-yl)phenyl)pyrrolidine-2-carboxamide] was tested, and the pIC50 was > 6.00.
In the case of `CC(=O)c1nn(CC(=O)N2C[C@H](F)C[C@H]2C(=O)Nc2cccc(-c3nc(Cl)c4nc[nH]c4n3)c2F)c2ccccc12` [Compound 99, (2S,4R)-1-(2-(3-acetyl-1H-indazol-1-yl)acetyl)-N-(3-(6-chloro-9H-purin-2-yl)-2-fluorophenyl)-4-fluoropyrrolidine-2-carboxamide], the pIC50 was > 6.00.
